Assay results reported in patent publication US20230107216A1, “PANTETHEINE DERIVATIVES AND USES THEREOF” (Comet Therapeutics, Inc., priority 2018, published 2023).
Where two headings read alike, the source gives them in different places.

How the values were obtained:
[1] = system: primary culture of rat embryo mesencephalic cells (microglia, astrocytes and neurons) exposed to LPS; assay: Neuroprotective effect on damage induced by LPS on culture of mesencephalic neurons (NO, TNF-α, IL-1β, TH positive neurons); assay type: cell-based; settings: Rattus norvegicus, Neuron, 120 h, 50 uM, after 5 days of LPS exposure; list at threshold 15%; read-out: % reversion of TH positive neurons
Description: Drug preparation. […] The stock solutions will be prepared 1000× the concentration in 100% DMSO. The final concentration of the vehicle (DMSO) is set at 0.1%.
Test animals. Pregnant Wistar rats (Janvier; France) are used for the study. They are group-housed and maintained in a room with controlled temperature (21-22° C.) and a reversed light-dark cycle (12h/12h; lights on: 17:30-05:30; lights off: 05:30-17:30) with food and water available ad libitum.
The protocol is performed in 3 independent cultures. For each culture, each condition is performed in sextuplicate.
Female rat of 15 days gestation is killed by cervical dislocation. Fetuses are removed from the uterus and their brains are harvested and placed in ice-cold medium (Leibovitz's L15 medium, Gibco). Only ventral mesencephalic flexure is used for the cell preparations. The midbrain is dissociated by trypsinization. The reaction is stopped, and the suspension is triturated and centrifuged. The pellet of dissociated cells is resuspended in culture medium consisted of DMEM-F12 (Gibco), containing 10% FBS (ATCC), 10% Horse serum (Gibco) and 2 mM L-glutamine (Gibco). Viable cells are counted and seeded on 96-well plates, precoated with poly-L-lysine. Cells are maintained in a humidified incubator at 37° C. in 5% CO2-95% air atmosphere. Half of the medium is changed on day 2 and day 5.
Treatment. On day 7, culture media are removed and replaced by new medium consisting of DMEM-F12 (Gibco) supplemented with 2% FBS (ATCC), 2% Horse serum (Gibco) and 2 mM L-glutamine (Gibco) and containing vehicle or test substances. After 1-hour exposure, LPS at 10 ng/ml is added and exposure further continued for 24 hours or 5 days period.
Inflammatory response measurement and neuronal death evaluation. NO production is measured in the media 24h and 5 days after LPS exposure using the Griess reagent kit (Molecular Probes). The Griess reagent Assay is a colorimetric reaction assay which measures the conversion of a sulfanilic salt into an azo dye product by nitrite. Visible wavelength absorbance data is collected using a 96-well plate reader at 570 nm (Multiskan EX, Thermo Fisher, France). IL-1β and TNF-α release are measured in the media 24h after LPS exposure using the ELISA development kit (PeproTech). The ELISA plate, previously coated with anti-IL-1β or anti-TNF-αantibody at 1 μg/ml, is incubated 1h with PBS containing 1% of BSA (bovine serum albumin). After washing four times with PBS containing 0.05% of Tween-20, the plate is successively incubated 2h with supernatant, 2h with biotinylated antibody at 0.5 μg/ml in PBS containing 0.1% of BSA and 0.05% of Tween-20, 45 min with Avidin-HRP conjugated at 1/2000 and 30 min with color ABTS substrate (Sigma). Visible wavelength absorbance data is collected using a 96-well plate reader at 405 nm with wavelength correction set at 650 nm (Multiskan EX, Thermo Fisher, France).
Immunodetection of tyrosine hydroxylase positive neurons. On day 12 (5 days after LPS exposure), cultures are fixed 30 min at 4° C. with paraformaldehyde in PBS (4%, Sigma). Then, cells are successively permeabilized with 0.1% Triton X100 for 30 min, saturated with PBS containing 3% of BSA (bovine serum albumin) and are incubated 2h with anti-tyrosine hydroxylase antibody (Sigma, 1:10000; clone TH-2) at 1/10 000 in PBS containing 0.5% of BSA. Cells are washed three times with PBS containing 0.5% of BSA, and they are incubated 1h with goat anti mouse antibody coupled with AF488 (Invitrogen A11001) diluted at 1/1000 in PBS containing 0.5% of BSA. Finally, nuclei are stained with DAPI at 1/1000 in PBS containing 0.5% of BSA. After rinsing with PBS, the plate is visualized and examined with Cell Insight HCS (Thermo Scientific) to determine the number of tyrosine hydroxylase positive cells per well.
Statistical Analysis. The drug-induced effect on NO and cytokines is calculated by setting the response of the LPS-stimulated control as 100%. […]

[2] = system: Propionic Acidemia (PA) primary fibroblasts Tsi 6337; assay: Mitochondrial respiration, XFe96 Extracellular Flux Analyzer (OCR/ECAR), PA fibroblasts Tsi 6337; assay type: cell-based; settings: Homo sapiens, Fibroblast, read-out: Increase in Maximal Respiratory Capacity AUC
Description: The effect of the compounds of the present disclosure on mitochondrial respiration was measured with a XFe96 Extracellular Flux Analyzer (Seahorse Bioscience, Agilent Technologies) and Oxygen consumption Rate (OCR) and Extracellular acidification rate (ECAR) determined.
Cell culture and treatments. Primary adherent fibroblasts were cultured in minimum essential medium (MEM) (Gibco, 25030081) supplemented with 2 mM L-Glutamine (Gibco, 25030081), 15% fetal bovine serum (FBS) (Gibco, 26400044) and 1% penicillin/streptomycin (Gibco, 5140122) at 37° C. and 5% CO2. Cells were collected for either passaging or experiment at ˜70-80% confluence. Cells were obtained by trypsinization and seeded at 20000 cells/well in cell culture microplates (Seahorse Bioscience, 101085-004) and allowed to adhere for 16 hours in culture media.
By profiling different primary cells and/or optimizing their culture media or environmental components one can select cell lines and/or conditions that are appropriate for the biological or disease model. In the present example, 24 hours prior to OCR and ECAR profiling, media was changed to Dulbecco's Modified Eagle Medium (DMEM, Agilent Seahorse 103575-100) with the appropriate supplements for the different primary cells (10 mM glucose, 2 mM L-glutamine, 1 mM pyruvate, 10% FBS; 1 mM glucose, 2 mM L-glutamine, 1 mM pyruvate, 10% FBS; 10 mM glucose, 10% FBS; 5 mM glucose 10% FBS; 1 mM glucose 10% FBS). Cells used in this example were: Propionic Acidemia (PA) (GM00371, GM03590 Coriell Institute for Medical Research, Tsi 6337, Tsi 4626, Tsi 3618 Trans-Hit Bio), Methylmalonic Acidemia (MMA) (GM01673, Coriell Institute for Medical Research, Tsi 5224 Trans-Hit Bio), Branched chain ketoacid dehydrogenase kinase (BCKDK) (GM00612, GM00649 Coriell Institute for Medical Research), Subnormal activation of pyruvate dehydrogenase complex (PDH) (GM01503 Coriell Institute for Medical Research), Very long-chain acyl-CoA dehydrogenase (VLCAD) (GM17475), Leigh Syndrome (LS) (GM03672, GM13411 Coriell Institute for Medical Research), Pyruvate Carboxylase Deficiency (PC) (GM00444 Coriell Institute for Medical Research), Glutaric Acidemia-I (GA) (GM10653), Friedreich's Ataxia (FXN) (GM04078 Coriell Institute for Medical Research, Huntington's disease (HD) (GM21756 Coriell Institute for Medical Research), Ornithine Transcarbamylase Deficiency (OTC) (GM12756 Coriell Institute for Medical Research), Kearns-Sayre Syndrome (KSS) (GM06225 Coriell Institute for Medical Research).
One hour before the assay, the cells were washed with freshly prepared unbuffered serum free-Seahorse XF Assay medium (Seahorse Bioscience, North America, USA, 103575-100) with the same supplements as for the previous 24 hour incubation.
After baseline measurements of OCR, cells were challenged with compounds of the present disclosure at different concentrations (10 to 50 μM) or vehicle (DMSO, 0.1%) and a post-compound baseline was recorded. OCR was measured after sequentially adding to each well 1 μg/ml oligomycin (inhibitor of ATP synthase Sigma-Aldrich, 753531), then maximal OCR was determined with carbonyl cyanide 4-(trifluoromethoxy) phenylhydrazone (FCCP, Sigma-Aldrich, C2920), (uncoupler of oxidative phosphorylation) and 0.5 μM of rotenone (Sigma-Aldrich, R8875) plus antimycin A (Sigma-Aldrich, A8674) (inhibitors of mitochondrial complex I and III) for determination of rotenone-antimycin insensitive respiration together with Hoechst for nuclear staining in situ when normalized to cell counts. After the analysis and nuclear staining, the XFp microplate was transferred to the Cytation 5, and the nuclear images were captured, the individual nuclei were identified and counted by BioTek Gen5 software. Data were expressed as pmol of O2 per minute and normalized by nuclear staining and baselined to pre-compound addition.
Assay conditions were as stated below.
Assay specifics on assay conditions are indicated below when readouts were normalized to cell counts. […]

HepG2 cells = assay: Mitochondrial membrane potential (MITO-ID MP detection Kit); assay type: cell-based; settings: Homo sapiens, 168 h, 7 days, read-out: % increase in Mitochondrial Membrane Potential
Description: HepG2 cells (ATCC, HB-8065) were cultured (5% CO2 at 37° C.) and plated in Poly-D-Lysine 384-Well plate (Corning, 356663) at a density of 160000 cells/mL in 50 μL/well. Culture and assay media consisted of DMEM (Gibco, 11995-065) supplemented with 1% Penicillin-Streptomycin and 10% FBS (Hyclone, SV30087.03).
MITO-ID® MP detection Kit (ENZ-51018) was used and manufacturer instructions followed. Cells were allowed to settle for 30 min at room temperature and further incubated overnight (37° C. and 5% CO2) for adherence. Next day, test compounds (50-10 μM) and vehicle DMSO (0.2%) were added at the recommended volumes to the 384-well plate for 7 days without media change using a Tecan compound dispenser. All the solutions and wash buffers were prepared and dispensed according to manufacturer's volumes for a 384-well plate format.

[3] = system: monocyte-derived M1 macrophages; assay: M1 differentiation assay (macrophage TNFα, IL6, IL10 ELISA, FACS); assay type: cell-based, human; settings: Homo sapiens, Macrophage
Method in brief: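 CD14+ human blood monocytes (100,000) differentiated 6 days with 10 ng/ml GM-CSF plus compound at 10 or 50 μM, refreshed days 2 and 4. Matured 24 h with GM-CSF, IFNγ, LPS plus compound. Supernatant TNFα, IL6, IL10 by ELISA; FACS M1 phenotype CD86+CD68+CD163−.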

[4] = PA Tsi 6337, assay condition A (10 mM glucose, 2 mM L-glutamine, 1 mM pyruvate, 10% FBS)

SMILES	inhibition at 50 µM [1] [%]	activation at 10 µM [2, 4] [%]	activation at 50 µM (HepG2 cells; 50 uM) [%]	inhibition at 10 µM ([3]; 10 uM, read-out: % decrease in Macrophage IL-6 Secretion) [%]	activation at 50 µM ([3]; 50 uM, read-out: % Increase in IL-10 Secretion) [%]	activation at 10 µM (HepG2 cells) [%]	activation at 10 µM ([2]; PA Tsi 6337, assay condition D (1 mM glucose, 10% FBS)) [%]
CC(C)(CO)[C@@H](O)C(=O)NCCC(=O)NCCS [Preparatory Ex 5]	≥ 15						
C[C@@H](CC(=O)SCCNC(=O)CCNC(=O)[C@H](O)C(C)(C)CO)OC(=O)CCC(=O)O [Compound 1247, 4-{[(2S)-4-[(2-{3-[(2R)-2,4-dihydroxy-3,3-dimethylbutanamido]propanamido}ethyl)sulfanyl]-4-oxobutan-2-yl]oxy}-4-oxobutanoic acid]		≥ 10	> 20				
CC(C)(CO)[C@@H](O)C(=O)NCCC(=O)NCCSC(=O)C1CCC(=O)O1 (stereo partly drawn) [Compound 1229, S-2-{3-[(R)-2,4-dihydroxy-3,3-dimethylbutyrylamino]propionylamino} ethyl 5-oxo-3,4-dihydro-2H-furan-2-carbothioate]		≥ 10		≥ 30	≥ 30	> 20	
COC(=O)CCC(=O)OCC(C)(C)[C@@H](O)C(=O)NCCC(=O)NCCSC(=O)CCC(=O)OC [Compound 1230]		≥ 10				> 30	≥ 10
